Where “and” joins values, the source holds several entries; their conditions need not be identical. Equal values may be shown once. Entries after “also recorded” stand apart in the source; their conditions may differ.
Key:
[1] = tested on: NSCLC cell lines; assay: High-throughput cell-based screening of the NSCLC cell line collection (CellTiter-Glo viability); details: for sensitivity pattern (cytotoxic activity) across the NSCLC cell line collection: cellular viability after 96 h, cellular ATP content, entire NSCLC cell line panel
[2] = tested on: KRAS-driven lung adenocarcinomas
Procedure: FIG. 20. […] Note that the images were taken from the earlier publications for illustration purposes only.
Transgenic mice (as described in FIG. 20) with KRAS-mutant lung tumors were treated with the HSP90 inhibitor 17-DMAG for seven days. Tumor volumes were determined by magnetic resonance imaging and shown as transthoracic images (left panels), quantified and changes in tumor volume relative to the pre-therapy images are given in percent.
These mice carry a Lox-Stop-Lox-KRAS_G12D gene. […] Mice received 20 mg/kg/d of 17-DMAG, a geldanamycin HSP90 inhibitor with almost identical structure as 17-AAG.

[3] = tested on: Ba/F3 cells expressing erlotinib-sensitizing mutations of EGFR together with T790M; assay: Growth inhibition / cytotoxicity in Ba/F3 cells expressing mutant EGFR with T790M; assay type: cell-based, Murine; details: Ba/F3 with sensitizing EGFR mutation plus T790M, 96 h, cellular ATP content
Procedure: Compounds were then added in serial dilutions.
EGFR_cDNA was subcloned into pBabe-hygro vectors.

[4] = tested on: c-RAF; assay: Immunoblot of lysates of cell lines treated with 17-AAG: c-RAF; assay type: cell-based, human; details: sensitive (KRAS-mutant) cell lines
Text: (§1) (A) Distribution of KRAS mutations (black columns) across the 17-AAG-sensitivity profile (IC50 values) in the NSCLC cell line collection and the NCI-60 cell line panel. Incidence of KRAS mutation and sensitivity towards 17-AAG is represented by a Fisher's exact test for both datasets. (B) Lysates of a KRAS wildtype (wt) and a KRAS mutated (G12C) cell line treated with 17AAG at different concentrations were immunoblotted for c-RAF, KRAS, cyclinD1 and Akt. (C) Distribution of copy number gain at 1q21.3 (black columns) across the UO126-sensitivity profile (IC50 values) in the NSCLC cell line collection and the hypothemycin-sensitivity profile in the NCI-60 cell line panel. Incidence of amplification of 1q21.3 mutation and sensitivity towards 17-AAG is represented by a Fisher's exact test for both datasets. […]
(§2) Whole-cell lysates were prepared in NP40 lysis buffer (50 mmol/L Tris-HCl (pH 7.4). 150 mmol/L NaCl, 1% NP40) supplemented with protease and phosphatase inhibitor I and II cocktails (www.merckbiosciences.co.uk/g.asp?f=CBC/home.html) and clarified by centrifugation. Protein concentrations were determined using the Bicinchoninic Acid Protein Assay kit (www.piercenet.com) and equivalent amounts (40-60 μg) were subjected to SDS-PAGE on 12% gels, except where indicated. […]

[5] = tested on: Akt; assay: Immunoblot of lysates of cell lines treated with 17-AAG: Akt; assay type: cell-based, human; details: sensitive (KRAS-mutant) cell lines
Text: as §1, §2

[6] = tested on: KRAS; assay: Immunoblot of lysates of cell lines treated with 17-AAG: KRAS; assay type: cell-based, human; details: sensitive (KRAS-mutant) cell lines
Text: as §1, §2

[7] = tested on: mutant KRAS bound to Hsp90; assay: Depletion of mutant KRAS from the Hsp90 complex; assay type: cell-based; details: treatment with HSP90 inhibitor
[8] = tested on: mutant EGFR bound to Hsp90; assay: Depletion of mutant EGFR from the Hsp90 complex; assay type: cell-based; details: same conditions as for KRAS

C#Cc1cccc(Nc2ncnc3cc(OCCOC)c(OCCOC)cc23)c1 [erlotinib]
sensitivity pattern (cytotoxic activity) across the NSCLC cell line collection [1]: pronounced cytotoxic activity in a small subset of cell lines

CO[C@H]1/C=C\C=C(/C)C(=O)NC2=CC(=O)C(NCCN(C)C)=C(C[C@@H](C)C[C@H](OC)[C@H](O)[C@@H](C)/C=C(\C)[C@@H]1OC(N)=O)C2=O [17-DMAG, 17-NN-Dimethyl Ethylene Diamine-Geldanamycin]
tumor burden of the third mouse ([2]; 20 mg/kg/d, one week of treatment, MRI imaging): slight but insignificant reduction of tumor burden | mice showing tumor regression ([2]; 20 mg/kg/d, one week of treatment, MRI imaging, lox-stop-lox KRAS_G12D mice): 2 of 3 and 3 of 4 | duration of responses ([2]; lung tumor-bearing lox-stop-lox KRAS_G12D mice, one-week treatment): transient | biological effects in the cell lines compared with 17-AAG ([1]; in vitro, data not shown): identical

Cc1cc(Nc2cc(N3CCN(C)CC3)nc(Sc3ccc(NC(=O)C4CC4)cc3)n2)n[nH]1 [VX-680]
sensitivity pattern (cytotoxic activity) across the NSCLC cell line collection [1]: pronounced cytotoxic activity in a small subset of cell lines

COc1cc2c(Nc3ccc(Br)cc3F)ncnc2cc1OCC1CCN(C)CC1 [vandetanib]
activity / cytotoxicity in Ba/F3 cells expressing the T790M resistance allele [3]: completely resistant | activity / cytotoxicity in Ba/F3 cells expressing the T790M resistance allele ([3]; listed as Vandatinib): lack of activity | sensitivity pattern (cytotoxic activity) across the NSCLC cell line collection [1]: pronounced cytotoxic activity in a small subset of cell lines

C=CCNC1=C2C[C@@H](C)C[C@H](OC)[C@H](O)[C@@H](C)/C=C(\C)[C@H](OC(N)=O)[C@@H](OC)/C=C\C=C(/C)C(=O)NC(=CC1=O)C2=O [17-AAG, [(3S,5S,6R,7S,8E,10R,11S,12E,14E)-21-(allylamino)-6-hydroxy-5,11-dimethoxy-3,7,9,15-tetramethyl-16,20,22-trioxo-17-azabicyclo[16.3.1]docosa-8,12,14,18,21-pentaen-10-yl]carbamate]
c-RAF protein levels after treatment [4]: modulated; also recorded: reduced protein levels | Akt protein levels after treatment [5]: modulated; also recorded: reduced protein levels | KRAS protein levels after treatment [6]: not modulated | depletion of mutant KRAS from the Hsp90 complex [7]: not depleted from the complex | depletion of mutant EGFR from the Hsp90 complex [8]: depleted from the complex | sensitivity pattern (cytotoxic activity) across the NSCLC cell line collection [1]: active in most of the cell lines with only a minority being resistant

N#CC(=C(/N)Sc1ccccc1N)/C(C#N)=C(\N)Sc1ccccc1N [U0126]
sensitivity pattern (cytotoxic activity) across the NSCLC cell line collection [1]: enhanced activity in a subset of the lung cancer cell line collection
